Experimental findings from ChEMBL document CHEMBL1135194, “Inhibition of Src kinase activity by 4-anilino-7-thienyl-3-quinolinecarbonitriles” (Bioorg Med Chem Lett, 2002) are described below.

The target of this assay is Proto-oncogene tyrosine-protein kinase Src (Homo sapiens, UniProt P12931). The experiment in a line: Inhibition of Src kinase in enzymatic assay.
Sequence of Proto-oncogene tyrosine-protein kinase Src (P12931 2-536 limits assumed): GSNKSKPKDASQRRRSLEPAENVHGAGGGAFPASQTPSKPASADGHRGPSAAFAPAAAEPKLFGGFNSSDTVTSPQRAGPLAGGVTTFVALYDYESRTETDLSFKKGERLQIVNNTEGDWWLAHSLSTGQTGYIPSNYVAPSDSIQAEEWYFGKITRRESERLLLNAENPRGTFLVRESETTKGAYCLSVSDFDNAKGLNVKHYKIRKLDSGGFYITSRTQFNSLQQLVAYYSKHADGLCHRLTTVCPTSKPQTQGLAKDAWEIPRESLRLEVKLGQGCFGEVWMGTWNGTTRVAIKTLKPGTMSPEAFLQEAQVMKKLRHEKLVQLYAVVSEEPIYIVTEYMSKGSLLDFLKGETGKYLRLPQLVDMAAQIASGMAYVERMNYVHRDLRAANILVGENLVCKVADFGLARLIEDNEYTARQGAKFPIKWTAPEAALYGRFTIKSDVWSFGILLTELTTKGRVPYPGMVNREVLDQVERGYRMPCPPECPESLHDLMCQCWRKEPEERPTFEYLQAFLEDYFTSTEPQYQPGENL
As for `COc1cc(Nc2c(C#N)cnc3cc(-c4ccsc4CN4CCOCC4)ccc23)c(Cl)cc1Cl`, inhibition was half-maximal at 440 nM (IC50). `COc1cc(Nc2c(C#N)cnc3cc(-c4cc(CN5CCCCC5)cs4)ccc23)c(Cl)cc1Cl`: the half-maximal inhibitory concentration (IC50) was 4.2 nM. `COc1cc(Nc2c(C#N)cnc3cc(-c4cc(CN5CCOCC5)cs4)ccc23)c(Cl)cc1Cl` had an IC50 of 5.7 nM. This IC50 and that of the compound before are within 1.5-fold of each other. Next, `COc1cc(Nc2c(C#N)cnc3cc(-c4csc(CN5CCC(O)CC5)c4)ccc23)c(Cl)cc1Cl`: 1.4 nM; `COc1cc(Nc2c(C#N)cnc3cc(-c4ccc(CN5CCOCC5)s4)ccc23)c(Cl)cc1Cl`: 2.5 nM. In the case of `COc1cc(Nc2c(C#N)cnc3cc(-c4cscc4CN4CCOCC4)ccc23)c(Cl)cc1Cl`, the IC50 came out at 240 nM. For the compound `COc1cc(Nc2c(C#N)cnc3ccc(-c4csc(CN5CCOCC5)c4)cc23)c(Cl)cc1Cl`, the IC50 was 280 nM. This IC50 and that of the compound before are within 1.5-fold of each other. The compound `COc1cc(Nc2c(C#N)cnc3cc(-c4csc(CN5CCOCC5)c4)ccc23)c(Cl)cc1Cl` yielded a half-maximal inhibitory concentration (IC50) of 2.7 nM. Compared with the last compound, the IC50 is about 100-fold lower.
